Experimental data as given in patent US20260138970A1, “MODULATORS OF THE CALCIUM SIGNALING CASCADE” (FONDAZIONE TELETHON ETS, priority 2022, published 2026).

What was measured:
[1] = target: T1, P2RY2 (Rattus norvegicus, UniProt P41232); experiment: Fluo-4 Ca2+ assay in null FRT cells with P2RY2 antagonist; type: cell-based; conditions: AR-C118925XX 10 μM; UTP 0.25 μM; FIG. 5B
T1 construct: endogenous in cells; host or cells: null (parental) FRT cells
Description: Experiments were performed using the microplate reader described for the HS-YFP assay. FRT and HEK293 cells were cultured until confluence in 96-well microplates (3603, Corning). Cells were washed 2 times with PBS (150 μl/wash) and then loaded for 1 h at 37° C. with 5 μM Fluo-4/AM (Thermo Fisher Scientific; catalog number: F23917) in PBS containing 10 mM glucose, 0.5 mM sulfinpyrazone, and 1% fetal bovine serum. After loading, cells were washed 2 times with PBS-glucose-sulfinpyrazone (150 μl/wash) and incubated for 20 min at 37° C. with 60 μl of PBS plus 10 mM glucose and 0.5 mM sulfinpyrazone containing compounds of interest at 10 μM final concentration or vehicle. Each well was assayed individually. Fluo-4 fluorescence (500 nm excitation, 535 nm emission) was detected every 200 ms for 16-40 s. Two seconds after the start of fluorescence recording, the reader automatically injected 165 μl of a modified PBS containing 136 mM KCl instead of NaCl. This solution also contained 10 mM glucose, 0.5 mM sulfinpyrazone, and UTP or SLIGR-NH2 (CAS #171436-38-7) at a final concentration that depended on the specific cell type. […] The Fluo-4 fluorescence increase was quantified using a procedure compiled in Microsoft Excel after background subtraction and normalization for the initial value measured before UTP addition.

[2] = tested on: PLC; experiment: PLC assay in FRT cells expressing PH-PLC-GFP sensor; type: cell-based; conditions: pre-incubation with BAPTA/AM; FIG. 3B
Description: FRT cells with stable expression of PLC6-PH-GFP, generated in the laboratory of inventors, were cultured up to subconfluent condition in p-Plate96 microplates (Ibidi). Each well of a 96-well microplate was washed 3 times, leaving 125 μl of phosphate-buffered saline (PBS) containing compounds at 10 μM final concentration or vehicle. After 20 min of incubation at 37° C., microplate was moved on the stage of an inverted microscope equipped with GFP excitation/emission filters, 40×oil immersion objective (Olympus, Segrate, Italy), Lambda DG4 illumination system (Sutter Instrument Co., Novato, CA, USA), Prime cmos camera (Photometrics, Tucson, AZ, USA) and MetaMorph imaging acquisition software (Molecular Devices, Sunnyvale, CA, USA). Time-lapse experiments were carried out with 50 ms exposure time, 20 frame/s rate, and 2.4 min total duration. After 20 s and 90 s, UTP 0.25 μM and 100 μM (final concentrations) was respectively added. Analysis was performed with MetaMorph software, by quantifying GFP fluorescence cytoplasmic accumulation in manually selected single cell regions of interest (ROI). After background subtraction, fluorescence recordings were normalized for the initial value.

[3] = tested on: FRT cells; experiment: Fluo-4 Ca2+ mobilization assay in parental (null) FRT cells; type: cell-based, rat; conditions: for potentiation of the Ca2+ increase elicited by UTP, multiple concentrations: UTP 0.25 μM, compounds 1-80 μM, vs vehicle (DMSO), FIG. 8
Description: Experiments were performed using the microplate reader described for the HS-YFP assay. FRT and HEK293 cells were cultured until confluence in 96-well microplates (3603, Corning). Cells were washed 2 times with PBS (150 μl/wash) and then loaded for 1 h at 37° C. with 5 μM Fluo-4/AM (Thermo Fisher Scientific; catalog number: F23917) in PBS containing 10 mM glucose, 0.5 mM sulfinpyrazone, and 1% fetal bovine serum. […] Each well was assayed individually. Fluo-4 fluorescence (500 nm excitation, 535 nm emission) was detected every 200 ms for 16-40 s. Two seconds after the start of fluorescence recording, the reader automatically injected 165 μl of a modified PBS containing 136 mM KCl instead of NaCl. This solution also contained 10 mM glucose, 0.5 mM sulfinpyrazone, and UTP or SLIGR-NH2 (CAS #171436-38-7) at a final concentration that depended on the specific cell type. For UTP we used: 0.25 μM for FRT; 1 μM for HEKR2; 5 μM for HEK3XKO, HEKR1, and HEKR3. For SLIGR-NH2 we used: 10 μM for HEKR1; 4 μM for HEKR2. These concentrations were chosen to elicit ˜20% of maximal effect based on UTP and SLIGR-NH2 dose-response relationships. The lower agonist concentrations used for HEKR2 cells, compared to HEKR1 cells, are consistent with the higher affinity of ITPR2 for IP3 (16). The Fluo-4 fluorescence increase was quantified using a procedure compiled in Microsoft Excel after background subtraction and normalization for the initial value measured before UTP addition.
In a further experimental setting, experiments were performed using as above the FLUOstar Omega (BMG Labtech, Offenburg, Germany) microplate reader equipped with syringe pumps and optical excitation/emission filters optimized for yellow fluorescent protein (YFP) fluorescence (ET500/20× and ET535/30m, respectively; Chroma Technology Corporation). FRT and Chem-1 cells were cultured until confluence in 96-well microplates (cc3603, Corning). Cells were washed 2 times with PBS (150 μl/wash) and then loaded for 1 h at 37° C. with 5 μM Fluo-4/AM (Thermo Fisher Scientific; catalog number: F23917) in PBS containing 10 mM glucose, 0.5 mM sulfinpyrazone, and 1% fetal bovine serum. […] Each well was assayed individually. Fluo-4 fluorescence (500 nm excitation, 535 nm emission) was detected every 200 ms for 16-40 s. Two seconds after the start of fluorescence recording, the reader automatically injected 165 μl of a modified PBS containing 136 mM KCl instead of NaCl. This solution also contained, in addition to 10 mM glucose and 0.5 mM sulfinpyrazone, the following agonists: UTP (U6625, Merck) or CCK8s (23371, Cayman Chemical). The Fluo-4 fluorescence increase was quantified using a procedure compiled in Microsoft Excel after background subtraction and normalization for the initial value measured before UTP or CCK8s addition.

[4] = tested on: ENaC; experiment: Short-circuit current recordings on human cultured bronchial epithelia, ENaC function; type: cell-based; conditions: apical addition; ARN7149 10 μM, ARN11391 20 μM, ARN4550 20 μM, UTP 10 nM; FIG. 9
Description: In a further experimental setting, snapwell supports (cc3801, Corning) carrying differentiated bronchial epithelia generated in vitro were mounted in a vertical chamber resembling an Ussing system with internal fluid circulation (EM-CSYS-8, Physiologic Instruments, San Diego, CA, USA). The apical and basolateral hemichambers were filled with a solution containing (in mM): 126 NaCl, 0.38 KH2PO4, 2.13 K2HPO4, 1 MgSO4, 1 CaCl2), 24 NaHCO3, and 10 glucose. Both sides were continuously bubbled with a gas mixture containing 5% CO2 and 95% air. The temperature of the solution was kept at 37° C. throughout the experiment.
During recordings, the following molecules (in addition to ARN7149, ARN11391, and ARN4550) were added in the apical solution: elastase (SE2093002, Serva); UTP (U6625, Merck); amiloride (A7410, Merck). Transepithelial voltage was short-circuited with a voltage-clamp (VCC MC8, Physiologic Instruments, San Diego, CA, USA) connected to the apical and basolateral chambers via Ag—AgCl electrodes and agar bridges (2% agar in 1 M KCl). The offset between voltage electrodes and the fluid resistance were cancelled before experiments. The resulting short-circuited current from each channel was recorded on a personal computer with the Acquire & Analize 2.3 software (Physiologic Instruments, San Diego, CA, USA).

[5] = tested on: TMEM16A; experiment: HS-YFP assay in ITPR-defective HEK293 cells transiently transfected with TMEM16A; type: cell-based; conditions: ionomycin 1 μM, FIG. 2D

T1 sequence (P41232 whole entry): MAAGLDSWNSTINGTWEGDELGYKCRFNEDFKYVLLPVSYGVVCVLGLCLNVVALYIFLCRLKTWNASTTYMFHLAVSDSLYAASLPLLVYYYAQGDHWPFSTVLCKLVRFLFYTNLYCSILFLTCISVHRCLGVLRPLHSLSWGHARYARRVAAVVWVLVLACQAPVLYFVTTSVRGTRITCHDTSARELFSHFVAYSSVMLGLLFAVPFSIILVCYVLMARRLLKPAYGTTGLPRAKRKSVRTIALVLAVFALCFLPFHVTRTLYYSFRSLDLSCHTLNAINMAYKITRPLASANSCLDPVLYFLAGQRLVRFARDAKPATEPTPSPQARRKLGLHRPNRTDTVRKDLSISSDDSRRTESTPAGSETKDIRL

Cc1ccc2c(c1)C=Cc1cc(C)ccc1C2c1cn(Cc2ccc(C(=O)Nc3nn[nH]n3)o2)c(=O)[nH]c1=S [AR-C118925XX] was tested, and the “effect of UTP alone and of UTP plus potentiators on Ca2+ mobilization” value [1] was “completely blocked”.
In the case of CC(=O)OCOC(=O)CN(CC(=O)OCOC(C)=O)c1ccccc1OCCOc1ccccc1N(CC(=O)OCOC(C)=O)CC(=O)OCOC(C)=O [BAPTA/AM, 1,2-Bis(2-aminophenoxy)ethane-N,N,N′,N′-tetraacetic acid tetrakis(acetoxymethyl ester), reference compound], the “PLC activity with/without compounds after Ca2+ chelation” value [2] is reported as “markedly inhibited”.
With COCCN(C(=O)c1cc(OC)c(OC)c(OC)c1)c1nc(-c2ccccc2)cs1 [Eact, reference compound] the “direct Ca2+ mobilization in the absence of UTP (Fluo-4)” value ([3]; acute addition, compounds 10 μM, Eact 5 μM, FIG. 2B) was “elicits Ca^2+ influx”.
For O=c1ccn([C@@H]2O[C@H](COP(=O)(O)OP(=O)(O)OP(=O)(O)O)[C@@H](O)[C@H]2O)c(=O)[nH]1 [UTP, reference compound], the “ENaC current decay (ENaC inhibition), short-circuit current” value [4] was “ENaC current decay”.
For O=C(Nc1ccccc1OCC1CCCCO1)C1CCCN(c2ccccn2)C1 (stereo not shown) [compound 6, 1-(2-Pyridyl)-N-[2-(tetrahydropyran-2-ylmethoxy)phenyl]piperidine-3-carboxamide], the “potentiation of the Ca2+ increase elicited by UTP, multiple concentrations” value [3] was “dose-dependent potentiation”.
In the case of O=C(Nc1ccccc1OCC1CCCCO1)C1CC2C=CC1C2 (stereo not shown) [compound 7, N-[2-(Tetrahydropyran-2-ylmethoxy)phenyl]bicyclo[2.2.1]hept-5-ene-2-carboxamide], the “potentiation of the Ca2+ increase elicited by UTP, multiple concentrations” value [3] is reported as “dose-dependent potentiation”.
With C[C@H](CCC(=O)O)C[C@H](C)C[C@H](C)C(=O)/C=C(\O)[C@H](C)C[C@H](C)C/C=C/[C@@H](C)[C@@H](O)[C@@H](C)[C@@H](O)C[C@@H]1CC[C@@](C)([C@H]2CC[C@@](C)([C@@H](C)O)O2)O1 [ionomycin, reference compound] the “activation of TMEM16A when Ca2+ directly increased (HS-YFP)” value [5] was “large effect”.
